Assay results published in patent US20240316047A1, “INHIBITORS OF RNA HELICASE DHX9 AND USES THEREOF” (ACCENT THERAPEUTICS, INC., priority 2022, published 2024).

Target: Human recombinant DHX9 protein (Homo sapiens (Human), UniProt Q08211)
Test: DHX9 ATPase assay (ADP-Glo)
Format: biochemical
Settings: for IC50: read-out: DHX9 Biochemical Inflection Point

Human recombinant DHX9 protein, sequence (Q08211 whole entry): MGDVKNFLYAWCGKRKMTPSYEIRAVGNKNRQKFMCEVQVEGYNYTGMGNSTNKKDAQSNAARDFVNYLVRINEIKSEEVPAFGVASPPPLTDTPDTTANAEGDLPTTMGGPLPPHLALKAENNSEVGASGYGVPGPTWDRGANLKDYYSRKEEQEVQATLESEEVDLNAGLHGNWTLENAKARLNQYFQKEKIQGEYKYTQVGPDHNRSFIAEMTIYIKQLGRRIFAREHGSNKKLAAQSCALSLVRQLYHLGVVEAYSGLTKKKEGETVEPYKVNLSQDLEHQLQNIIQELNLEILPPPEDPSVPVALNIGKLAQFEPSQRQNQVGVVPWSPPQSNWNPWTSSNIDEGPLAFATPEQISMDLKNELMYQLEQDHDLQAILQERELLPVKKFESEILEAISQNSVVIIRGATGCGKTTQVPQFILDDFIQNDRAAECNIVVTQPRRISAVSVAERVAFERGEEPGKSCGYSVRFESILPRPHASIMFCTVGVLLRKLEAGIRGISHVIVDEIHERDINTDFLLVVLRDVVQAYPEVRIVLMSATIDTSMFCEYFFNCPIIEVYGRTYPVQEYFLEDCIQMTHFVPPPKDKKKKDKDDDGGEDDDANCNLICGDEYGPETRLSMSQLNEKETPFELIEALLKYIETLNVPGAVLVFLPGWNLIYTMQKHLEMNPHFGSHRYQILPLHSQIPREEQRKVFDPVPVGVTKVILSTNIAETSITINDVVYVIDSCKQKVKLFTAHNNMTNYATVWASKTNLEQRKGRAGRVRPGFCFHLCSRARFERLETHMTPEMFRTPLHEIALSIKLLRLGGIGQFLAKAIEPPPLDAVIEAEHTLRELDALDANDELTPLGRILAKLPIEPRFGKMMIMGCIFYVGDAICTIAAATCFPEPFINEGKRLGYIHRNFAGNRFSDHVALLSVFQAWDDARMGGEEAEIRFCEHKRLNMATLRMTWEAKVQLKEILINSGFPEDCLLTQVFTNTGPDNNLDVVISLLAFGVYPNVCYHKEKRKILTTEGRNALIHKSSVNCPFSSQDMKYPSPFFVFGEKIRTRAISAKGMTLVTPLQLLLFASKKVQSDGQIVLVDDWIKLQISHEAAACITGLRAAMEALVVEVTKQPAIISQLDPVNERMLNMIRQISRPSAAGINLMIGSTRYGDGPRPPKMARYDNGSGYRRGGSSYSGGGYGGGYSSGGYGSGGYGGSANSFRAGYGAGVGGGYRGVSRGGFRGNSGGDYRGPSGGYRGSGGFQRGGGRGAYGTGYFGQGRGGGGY

Structure (SMILES) | DHX9 Biochemical Max Inhibition | IC50 [nM]
CS(=O)(=O)Nc1cc(Cl)cc(NC(=O)c2cc(N3CCOCC3)cs2)c1 [Example 245] | 71.4% | 121
Cn1nc(C(=O)Nc2cc(Cl)cc(NS(C)(=O)=O)c2)cc1-c1ccccn1 [Example 140] | 63.3% | 300
CCS(=O)(=O)Nc1cc(Cl)cc(NC(=O)c2cc(-c3cccnc3)cs2)c1 [Example 110] | 53.7% | 40
CS(=O)(=O)Nc1cc(Cl)cc(NC(=O)c2cc(-c3ncc(F)cc3OCc3cncc(F)c3)cs2)c1 [Example 225] | 74.2% | 6.9
CS(=O)(=O)Nc1cc(Cl)cc(NC(=O)c2cnn(-c3ccccc3Oc3cccnc3)c2)c1 [Example 264] | 56.7% | 119
Cc1cc(C(=O)Nc2cc(Cl)cc(NS(C)(=O)=O)c2)cn1-c1ccc(N2CCOC2=O)cn1 [Example 416] | 81.8 | 13.5
Cc1sc(C(=O)Nc2cc(Cl)cc(NS(C)(=O)=O)c2)cc1-c1ncc(N2CCCC(F)(F)C2)cc1F [Example 482] | 63.3 | 66.5
CN1CC(Oc2cnc(-c3cc(C(=O)Nc4cc(Cl)cc(NS(C)(=O)=O)c4)cn3CC(F)(F)F)nc2)C1 [Example 613] | 70.3 | 4.2
CS(=O)(=O)Nc1cc(Cl)cc(NC(=O)c2cnn(-c3cc(N4CCOCC4)ccn3)c2)c1 [Example 91] | 59.7% | 27.9
Cc1cc(C(=O)Nc2cc(Cl)cc(NS(C)(=O)=O)c2)cn1-c1ncc(Cl)cn1 [Example 578] | 70.1 | 149
CS(=O)(=O)Nc1cc(Cl)cc(NC(=O)c2cnn(-c3c(F)cccc3OCc3cccc(F)c3)c2)c1 [Example 211] | 65.4% | 62.4
CCS(=O)(=O)Nc1cc(Cl)cc(NC(=O)c2cc(-c3ncc(OC(C)(C)C)cn3)c(C)s2)c1 [Example 566] | 66 | 186
Cc1sc(C(=O)Nc2cc(Cl)cc(NS(C)(=O)=O)c2)nc1-c1ccc(F)cn1 [Example 716] | 55.9 | 128
CS(=O)(=O)Nc1cc(Cl)cc(NC(=O)c2cc(-c3ccccc3)n(CC(F)(F)F)c2)c1 [Example 80] | 71.2% | 493
CNc1cnc(-c2cc(C(=O)Nc3cc(Cl)cc(NS(C)(=O)=O)c3)sc2C)nc1 [Example 616, N-(3-chloro-5-methanesulfonamidophenyl)-5-methyl-4-[5-(methylamino)pyrimidin-2-yl]thiophene-2-carboxamide] | 84.2 | 11.4
Cn1cc(C(=O)Nc2cc(Cl)cc(NS(C)(=O)=O)c2)cc1-c1ncc(F)cc1F [Example 540, N-(3-chloro-5-methanesulfonamidophenyl)-5-(3,5-difluoropyridin-2-yl)-1-methyl-1H-pyrrole-3-carboxamide] | 67.5 | 17.4
CS(=O)(=O)Nc1cc(Cl)cc(NC(=O)c2cnn(-c3ccc(S(C)(=O)=O)cn3)c2)c1 [Example 198] | 60.7% | 71.3
CS(=O)(=O)Nc1cc(Cl)cc(NC(=O)c2cc(-c3ncccc3Cc3ncccn3)cs2)c1 [Example 384] | 75.5% | 39
COc1cnc(-c2cc(C(=O)Nc3cc(Cl)cc(NS(C)(=O)=O)c3)sc2C)c(Cl)c1 [Example 364] | 79.8% | 15.6
CCOc1ccc(-c2cc(C(=O)Nc3cc(Cl)cc(NS(C)(=O)=O)c3)cn2C)nc1 [Example 572] | 73.3 | 11.2
CS(=O)(=O)Nc1cc(Cl)cc(NC(=O)c2cc(C(=O)N3CC4(CNC4)C3)n(-c3ccccn3)c2)c1 [Example 643] | 61.4 | 40.8
Cn1cc(C(=O)Nc2cc(Cl)cc(NS(C)(=O)=O)c2)cc1-c1ncc(F)cc1OC(F)F [Example 363] | 94.3% | 25.2
COc1ccc(-n2cc(C(=O)Nc3cc(Cl)cc(NS(C)(=O)=O)c3)cn2)nc1 [Example 197] | 72.7% | 26
CSc1cnc(-n2cc(C(=O)Nc3cc(Cl)cc(NS(C)(=O)=O)c3)cc2C)nc1 [Example 658] | 73.1 | 53.9
Cc1cc(N2CC(F)(F)C2)cnc1-c1cc(C(=O)Nc2cc(Cl)cc(NS(C)(=O)=O)c2)cn1C [Example 461] | 46.1 | 53.9
Cc1sc(C(=O)Nc2cc(Cl)cc(NS(C)(=O)=O)c2)cc1-c1ncccn1 [Example 22] | 71% | 2.5
CS(=O)(=O)Nc1cc(Br)cc(NC(=O)c2cnn(-c3ccc(F)cn3)c2)c1 [Example 39] | 52.3% | 70.1
CN1C(=O)N(c2ccc(-c3cc(C(=O)Nc4cc(Cl)cc(NS(C)(=O)=O)c4)cn3C)nc2)C(=O)C1(C)C [Example 603] | 83.4 | 10.9

Structure (SMILES) | DHX9 Biochemical Max Inhibition | IC50 [nM]
Cc1cnc(-n2cc(C(=O)Nc3cc(Cl)cc(NS(C)(=O)=O)c3)cn2)c(OCc2cnco2)c1 [Example 261] | 71% | 47.5
COCc1sc(C(=O)Nc2cc(Cl)cc(NS(C)(=O)=O)c2)cc1-c1ccccn1 [Example 234] | 84.6% | 9.5
CS(=O)(=O)Nc1cc(Cl)cc(NC(=O)c2cnn(-c3ncccc3OCc3cccc(O)c3)c2)c1 [Example 179] | 72.3% | 27.2
Cc1cccnc1-c1cc(C(=O)Nc2cc(F)cc(NS(C)(=O)=O)c2)sc1C [Example 333] | 78.1% | 35.1
Cn1cc(C(=O)Nc2cc(Cl)cc(NS(C)(=O)=O)c2)cc1-c1ncc(F)cc1C#N [Example 546] | 73.6 | 13.1
Cn1cc(C(=O)Nc2cc(Cl)cc(NS(C)(=O)=O)c2)cc1-c1ccc(N2CC3(C2)CC(F)(F)C3)cn1 [Example 498] | 65.4 | 38
Cc1sc(C(=O)Nc2cc(Cl)cc(NS(C)(=O)=O)c2)cc1-c1ncc(OC(C)C(=O)O)cn1 (centres unmarked) [Example 671] | 68.8 | 6.8
Cc1sc(C(=O)Nc2cc(Cl)cc(NS(C)(=O)=O)c2)cc1-c1ncc(N2CC3(C2)CC(F)(F)C3)cc1F [Example 511] | 89.8 | 51.1
CS(=O)(=O)Nc1cc(Cl)cc(NC(=O)c2cnn(-c3ncc(F)cc3OCc3cccc(C#N)c3)c2)c1 [Example 203] | 76.5% | 28.1
Cc1sc(C(=O)Nc2cc(Cl)cc(NS(C)(=O)=O)c2)cc1-c1ccc(N2CC3(C2)CC(F)(F)C3)cn1 [Example 499] | 68.1 | 35.7
CS(=O)(=O)Nc1cc(Br)cc(NC(=O)c2cnn(-c3ncccc3N)c2)c1 [Example 162, 1-(3-aminopyridin-2-yl)-N-(3-bromo-5-(methylsulfonamido)phenyl)-1H-pyrazole-4-carboxamide] | 60.5% | 19.7
CCS(=O)(=O)Nc1cc(Cl)cc(NC(=O)c2cc(C)n(-c3ncc(F)cc3F)c2)c1 [Example 445] | 70.5 | 80.8
COC1CN(c2cnc(-n3cc(C(=O)Nc4cc(Cl)cc(NS(C)(=O)=O)c4)cc3C)nc2)C1 [Example 404] | 92 | 84.5
Cc1cc(C(=O)Nc2cc(Cl)cc(NS(C)(=O)=O)c2)cn1-c1ncc(N2CC(F)(F)C2)cc1F [Example 420] | 95 | 17.7
Cc1ncccc1-c1cc(F)cnc1-c1cc(C(=O)Nc2cc(Cl)cc(NS(C)(=O)=O)c2)sc1C [Example 608] | 75.4 | 7.2
CS(=O)(=O)Nc1cc(Cl)cc(NC(=O)c2cc3cccnn3c2)c1 [Example 292] | 68.5% | 76
Cc1sc(C(=O)Nc2cc(Cl)cc(NS(=O)(=O)CCO)c2)cc1-c1ncc(N2CC(C(F)(F)F)C2)cc1F [Example 529] | 57.3 | 163
Cc1cc(C(=O)Nc2cc(Cl)cc(NS(C)(=O)=O)c2)cn1-c1ncc(N2CC(F)(F)C2)cc1C(F)(F)F [Example 407] | 105 | 203
CS(=O)(=O)Nc1cc(Cl)cc(NC(=O)c2cc3c(C(F)(F)F)cccn3c2)c1 [Example 302] | 54.6% | 640
Cn1cc(C(=O)Nc2cc(Cl)cc(NS(C)(=O)=O)c2)cc1-c1ncccn1 [Example 82] | 69.4% | 9.2
CS(=O)(=O)Nc1cc(Cl)cc(NC(=O)c2cnn(-c3ccccc3Oc3cccc(F)c3)c2)c1 [Example 265] | 51.8% | 8050
CCS(=O)(=O)Nc1cc(Cl)cc(NC(=O)c2cc(-c3ncccn3)n(C)c2)c1 [Example 173, N-(3-chloro-5-(ethylsulfonamido)phenyl)-1-methyl-5-(pyrimidin-2-yl)-1H-pyrrole-3-carboxamide] | 61.3% | 8.6
CS(=O)(=O)Nc1cc(Cl)cc(NC(=O)c2cc(-c3ccc(F)cn3)n(S(C)(=O)=O)c2)c1 [Example 701] | 66.9 | 115
Cc1cc(C(=O)Nc2cc(Cl)cc(NS(C)(=O)=O)c2)cn1-c1ncc(F)cc1F [Example 444] | 72.9 | 39.1
Cn1cc(C(=O)Nc2cc(Cl)cc(NS(C)(=O)=O)c2)cc1-c1ncc(N2CC3(C2)CC(F)(F)C3)cn1 [Example 492] | 62.3 | 6.6
Cc1cc(C(=O)Nc2cc(Cl)cc(NS(C)(=O)=O)c2)cn1-c1ncc(N2CC(F)(F)C2)cc1OC(C)C [Example 672] | 65.1 | 97.8
Cn1cc(C(=O)Nc2cc(Cl)cc(NS(C)(=O)=O)c2)cc1-c1ncc(N2CC(F)(F)C2)cn1 [Example 597] | 69.1 | 22
